# Data: patent US20250381243A1, “HETEROCYCLES AND USES THEREOF” (Kumquat Biosciences Inc., priority 2022, published 2025)
# Tested on: A549 cells
# Experiment: Cell proliferation assay (CellTiter-Glo), cells with K-Ras G12S mutation
# Format: cell-based
# Details: Homo sapiens, 500 nM to 5 μM (mixed units), read-out: Inhibition of A549 Cells (IC50)
# Procedure, shortened: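 A549 (K-Ras G12S) cells in RPMI-1640 with 10% heat-inactivated FBS, plated in standard or ultra-low-attachment 384-well format, treated next day with a dilution series (e.g., 10-point, 3-fold). Viability read by CellTiter-Glo luminescence about 6 days later; IC50 from four-parameter fit.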
row,IC50 [nM],Structure (SMILES)
1,500 to 5000,"CC(C)[C@H]1N(C(=O)n2cnc(Cl)n2)C[C@]12CC[C@@H](C)N(c1nc(OC[C@@]34CCCN3C[C@H](F)C4)nc3c(F)c(-c4ccc(F)c5sc(N)c(C#N)c45)c(Cl)cc13)C2 [Compound 153, 2-amino-4-(6-chloro-4-((1R,4R,7R)-2-(3-chloro-1H-1,2,4-triazole-1-carbonyl)-1-isopropyl-7-methyl-2,6-diazaspiro[3.5]nonan-6-yl)-8-fluoro-2-(((2R,7aS)-2-fluorotetrahydro-1H-pyrrolizin-7a(5H)-yl)methoxy)quinazolin-7-yl)-7-fluorobenzo[b]thiophene-3-carbonitrile]"
2,500 to 5000,"CN(CC1(C)CCN1C(=O)n1cnc(Cl)n1)c1nc(OC[C@@]23CCCN2C[C@H](F)C3)nc2c(F)c(-c3ccc(F)c4sc(N)c(C#N)c34)c(Cl)cc12 (single isomer, unassigned) [Compound 183]"

# Same assay, conditions: Homo sapiens, ≤500 nM, read-out: Inhibition of A549 Cells (IC50)
row,IC50 [nM],Structure (SMILES)
1,≤ 500,"CC[C@H]1N(C(=O)n2cnc(Cl)n2)C[C@]12CCCCN(c1nc(OC[C@@]34CCCN3C[C@H](F)C4)nc3c(F)c(-c4ccc(F)c5sc(N)c(C#N)c45)c(Cl)cc13)C2 [Compound 131, 2-amino-4-(6-chloro-4-((1R,4R)-2-(3-chloro-1H-1,2,4-triazole-1-carbonyl)-1-ethyl-2,6-diazaspiro[3.6]decan-6-yl)-8-fluoro-2-(((2R,7aS)-2-fluorotetrahydro-1H-pyrrolizin-7a(5H)-yl)methoxy)quinazolin-7-yl)-7-fluorobenzo[b]thiophene-3-carbonitrile]"
2,≤ 500,"CC(C)[C@H]1N(C(=O)n2cnc(C(F)F)n2)C[C@@]12CN(c1nc(OC[C@@]34CCCN3C[C@H](F)C4)nc3c(F)c(-c4ccc(F)c5sc(N)c(C#N)c45)c(Cl)cc13)CCO2 [Compound 138, 2-amino-4-(6-chloro-4-((1R,4S)-2-(3-(difluoromethyl)-1H-1,2,4-triazole-1-carbonyl)-1-isopropyl-5-oxa-2,8-diazaspiro[3.5]nonan-8-yl)-8-fluoro-2-(((2R,7aS)-2-fluorotetrahydro-1H-pyrrolizin-7a(5H)-yl)methoxy)quinazolin-7-yl)-7-fluorobenzo[b]thiophene-3-carbonitrile]"
3,≤ 500,"CC(C)C1N(C(=O)n2cnc(Cl)n2)CC12CCCN(c1nc(OC[C@@]34CCCN3C[C@H](F)C4)nc3c(F)c(-c4ccc(F)c5sc(N)c(C#N)c45)c(Cl)cc13)C2 (stereo partly drawn) [Compound 175, 2-amino-4-(6-chloro-4-(2-(3-chloro-1H-1,2,4-triazole-1-carbonyl)-1-isopropyl-2,6-diazaspiro[3.5]nonan-6-yl)-8-fluoro-2-(((2R,7aS)-2-fluorotetrahydro-1H-pyrrolizin-7a(5H)-yl)methoxy)quinazolin-7-yl)-7-fluorobenzo[b]thiophene-3-carbonitrile]"
4,≤ 500,"CCN(C(=O)n1cncn1)C1CCCN(c2nc(OC[C@@]34CCCN3C[C@H](F)C4)nc3c(F)c(-c4ccc(F)c5sc(N)c(C#N)c45)c(Cl)cc23)C1 (stereo partly drawn) [Compound 209, N-(1-(7-(2-amino-3-cyano-7-fluorobenzo[b]thiophen-4-yl)-6-chloro-8-fluoro-2-(((2R,7aS)-2-fluorotetrahydro-1H-pyrrolizin-7a(5H)-yl)methoxy)quinazolin-4-yl)piperidin-3-yl)-N-ethyl-1H-1,2,4-triazole-1-carboxamide]"
5,≤ 500,"CCC1N(C(=O)n2cncn2)CC12CCN(c1nc(OC[C@@]34CCCN3C[C@H](F)C4)nc3c(F)c(-c4ccc(F)c5sc(N)c(C#N)c45)c(Cl)cc13)C2 (stereo partly drawn) [Compound 123, (4R)-2-amino-4-(6-chloro-4-(1-ethyl-2-(1H-1,2,4-triazole-1-carbonyl)-2,6-diazaspiro[3.4]octan-6-yl)-8-fluoro-2-(((2R,7aS)-2-fluorotetrahydro-1H-pyrrolizin-7a(5H)-yl)methoxy)quinazolin-7-yl)-7-fluorobenzo[b]thiophene-3-carbonitrile]"
6,≤ 500,"CC1([C@H]2N(C(=O)n3cnc(C(F)F)n3)C[C@]23CCCN(c2nc(OC[C@@]45CCCN4C[C@H](F)C5)nc4c(F)c(-c5ccc(F)c6sc(N)c(C#N)c56)c(Cl)cc24)C3)CC1 [Compound 234, 2-amino-4-(6-chloro-4-((1R,4R)-2-(3-(difluoromethyl)-1H-1,2,4-triazole-1-carbonyl)-1-(1-methylcyclopropyl)-2,6-diazaspiro[3.5]nonan-6-yl)-8-fluoro-2-(((2R,7aS)-2-fluorotetrahydro-1H-pyrrolizin-7a(5H)-yl)methoxy)quinazolin-7-yl)-7-fluorobenzo[b]thiophene-3-carbonitrile]"
7,≤ 500,"CCN(C(=O)n1cnc(Cl)n1)[C@@H]1CCN(c2nc(OC[C@@]34CCCN3C[C@H](F)C4)nc3c(F)c(-c4ccc(F)c5sc(N)c(C#N)c45)c(Cl)cc23)[C@@H]1C (single isomer, unassigned) [Compound 171]"
8,≤ 500,"CC(C)[C@H]1N(C(=O)n2cnc(Cl)n2)C[C@]12CC[C@H](C)N(c1nc(OC[C@@]34CCCN3C[C@H](F)C4)nc3c(F)c(-c4ccc(F)c5sc(N)c(C#N)c45)c(Cl)cc13)C2 [Compound 192, 2-amino-4-(6-chloro-4-((1R,4R,7S)-2-(3-chloro-1H-1,2,4-triazole-1-carbonyl)-1-isopropyl-7-methyl-2,6-diazaspiro[3.5]nonan-6-yl)-8-fluoro-2-(((2R,7aS)-2-fluorotetrahydro-1H-pyrrolizin-7a(5H)-yl)methoxy)quinazolin-7-yl)-7-fluorobenzo[b]thiophene-3-carbonitrile]"
9,≤ 500,"CC1([C@H]2N(C(=O)n3cnc(Cl)n3)C[C@]23CCCN(c2nc(OC[C@@]45CCCN4C[C@H](F)C5)nc4c(F)c(-c5ccc(F)c6sc(N)c(C#N)c56)c(Cl)cc24)C3)CC1 [Compound 179, 2-amino-4-(6-chloro-4-((1R,4R)-2-(3-chloro-1H-1,2,4-triazole-1-carbonyl)-1-(1-methylcyclopropyl)-2,6-diazaspiro[3.5]nonan-6-yl)-8-fluoro-2-(((2R,7aS)-2-fluorotetrahydro-1H-pyrrolizin-7a(5H)-yl)methoxy)quinazolin-7-yl)-7-fluorobenzo[b]thiophene-3-carbonitrile]"
10,≤ 500,"CC(C)[C@H]1N(C(=O)n2cnc(F)n2)C[C@]12CC(CC#N)CN(c1nc(OC[C@@]34CCCN3C[C@H](F)C4)nc3c(F)c(-c4ccc(F)c5sc(N)c(C#N)c45)c(Cl)cc13)C2 (stereo partly drawn) [Compound 235, 2-amino-4-(6-chloro-4-((1R,4R)-8-(cyanomethyl)-2-(3-fluoro-1H-1,2,4-triazole-1-carbonyl)-1-isopropyl-2,6-diazaspiro[3.5]nonan-6-yl)-8-fluoro-2-(((2R,7aS)-2-fluorotetrahydro-1H-pyrrolizin-7a(5H)-yl)methoxy)quinazolin-7-yl)-7-fluorobenzo[b]thiophene-3-carbonitrile]"
11,≤ 500,"CC(C)[C@H]1N(C(=O)n2cnc(C(F)F)n2)C[C@]12CCCN(c1nc(OC[C@@]34CCCN3C[C@H](F)C4)nc3c(F)c(-c4ccc(F)c5sc(N)c(C#N)c45)c(Cl)cc13)C2 [Compound 165, 2-amino-4-(6-chloro-4-((1R,4R)-2-(3-(difluoromethyl)-1H-1,2,4-triazole-1-carbonyl)-1-isopropyl-2,6-diazaspiro[3.5]nonan-6-yl)-8-fluoro-2-(((2R,7aS)-2-fluorotetrahydro-1H-pyrrolizin-7a(5H)-yl)methoxy)quinazolin-7-yl)-7-fluorobenzo[b]thiophene-3-carbonitrile]"
